The text below walks through data of US12679839B2, “Cyclin-dependent kinase 7 (CDK7) non-covalent inhibitors” (JANSSEN PHARMACEUTICA NV, priority 2020, dated 2026).

The subject of experiment [1] is RNA polymerase II Serine 5 phosphorylation (Rpb1 CTD), downstream substrate of CDK7. The experiment is described as follows: Imaging-based cellular RNA PolII Ser5 phosphorylation assay in A549 cells. In kind it is cell-based, human. The settings on record: Homo sapiens, A549, 3 h, challenged with compound for 3 hours, read-out: pRNA polII Ser5 (A549) pIC50 (converted). From the text: Dosing curves were fitted using the following equation to obtain IC50: Y=Bottom+(Top−Bottom)/(1+10^((log IC50−X)*Hill slope)) where X=log10 of the compound concentration; top and bottom can be defined by PC and NC respectively. Imaging-Based Cellular RNA PolII Ser5 Phosphorylation Assay
To evaluate inhibition of CDK7 kinase activity, a 384-well automated imaging assay was used. This assay detects Serine 5 phosphorylation on a unique heptapeptide sequence in the C-terminal domain of Rpb1 subunit of RNA polymerase II, the downstream substrate of CDK7. This heptapeptide sequence is repeated up to 52 times in the CTD of Rpb1.
A549 adenocarcinoma human alveolar basal epithelial cells (ATCC, CCL-185), rabbit Phospho-Rpb1 CTD (Ser5) antibody (D9N51 (Cell Signaling Technology)), DMEM (Sigma), Fetal Bovine Serum (Biowest), L-glutamine (Sigma), Penicillin/Streptomycin (Life Technologies), Sodium Pyruvate (Sigma), Hepes (Sigma), poly-D-lysine coated μclear 384 black plates (Greiner), formaldehyde (PolySciences), D-PBS (Sigma), Methanol (Sigma), Alexa Fluor 488 goat anti rabbit IgG secondary antibody (Life Technologies), HCS CellMask™ Deep Red stain (Life Technologies), Hoechst 33258 (Invitrogen).
RNA Polymerase II Serine 5 phosphorylation was detected using a specific rabbit Phospho-Rpb1 CTD (Ser5) antibody. A549 adenocarcinoma human alveolar basal epithelial cells were seeded in 20 μl medium (DMEM supplemented with 1% Fetal Bovine Serum (heat inactivated 30′ 56° C.), 2 mM L-glutamine, 50 U/ml penicillin 50 μg/ml streptomycin, 1 mM sodium pyruvate and 50 mM hepes) at 1000 cells/well and cultured in poly-D-lysine coated μclear 384 black plates for 20 hours at 37° C. and 5% CO2.
After incubation cells were challenged with compound for 3 hours at 37° C. and 5% CO2. DMSO was used as high control and as low control 10 μM of LDC4297 reference compound was used. 40 nl of test compounds and controls were spotted in cell plates using Echo Liquid Handler (Echo 550, Labcyte). Incubation was followed by 20 minutes fixation with 20 μl 10% formaldehyde at room temperature. Medium/formaldehyde solution was removed, plates were washed 3 times with 30 μl D-PBS (w/o Ca^2+ and Ma^2+) and permeabilization was done by adding 20 μl ice cold methanol for 20 minutes. Cells were washed again 3 times with 30 μl D-PBS and 20 μl blocking buffer (25 ml fetal bovine serum in 500 ml D-PBS) was added for 1 hour.
After removing blocking buffer 20 μl 1/1000 primary antibody rabbit. Phospho-Rpb1 CTD (Ser5) antibody was added which binds to the phosphorylated Serine5 of the heptapeptide sequences in the CTD of Rpb1. Primary antibody was removed, and plates were washed 3 times with 30 μl D-PBS followed by addition of 20 μl 1/2000 Alexa Fluor 488 goat anti rabbit IgG secondary antibody for final detection of Phospho-Rpb1 CTD (Ser5) together with 1/5000 HCS CellMask™ Deep Red stain for membrane staining and 1/5000 Hoechst 33258 for nucleus staining. Last, plates were washed 2 times with 30 μl D-PBS and wells were filled with 40 μL D-PBS, plates were sealed (Thermowell sealing tape) and stored at 4° C. until reading. Plates were read with Opera Phenix (Perkin Elmer) with 10× air objective. Data were calculated and analyzed in Phaedra.
IC50 values were calculated using the following formula:
Average value of all HC's and all LC's are used for normalizations. % Effect=100−(sample−LC)/(HC−LC)×100% Control=(sample/HC)×100
A best-fit curve is fitted by a minimum sum of squares method to the plot of % Control vs. compound concentration. From this an IC50 value can be obtained. An estimate of the slope of the plot in terms of the Hill coefficient is also obtained.

Experiment [2] has as its target T1, CDK7/Cyclin H/MAT-1 complex (Homo sapiens, UniProt P50613).
T1 construct: Human CDK7 (amino acids 1-346); His6 (N); TEV protease cleavage site (N); made in house; host or cells: baculovirus-SF9 insect cells
The experiment in a line: Absorbance kinetic assay (20 nM CDK7/Cyclin H/MAT-1 complex). In kind it is biochemical. Particulars: for IC50: read-out: CDK7 (20 nM) pIC50 (converted). On the procedure:
Human CDK7 (amino acids 1-346) containing an N-terminal His6-tag followed by a tobacco etch virus (TEV) protease cleavage site, human MAT1 (amino acids 1-309) and human cyclin H (amino acids 1-323) were co-expressed in the baculovirus-SF9 insect cell expression system to generate a trimeric complex. Cell pellets were collected 72 h post-infection and were resuspended by Dounce homogenization in 20 mM Hepes-NaOH (pH 8.0), 300 mM NaCl, 10% glycerol, 2 mM dithiothreitol DTT), and 20 mM Imidazole supplemented with cOmplete™ Protease Inhibitor Cocktail (Roche) and 25 U/mL Benzonase® Nuclease HC according to the manufacturer's instructions. Cells were lysed by passing through a Microfluidics M110Y Microfluidizer 3 times at 600 kPa followed by centrifugation at 38,000×g at 4° C. for 1 hour. The supernatant was loaded onto a pre-equilibrated HisTrap HP column and eluted in 20 mM Hepes-NaOH (pH 8.0), 50 mM NaCl, 10% glycerol, 2 mM DTT, and 400 mM Imidazole. The eluate was further purified by gel filtration on a Superdex S200 16/60 column and eluted with 20 mM Hepes-NaOH (pH 7.5), 50 mM NaCl, 10% Glycerol, 2 mM DTT. Fractions containing a trimeric complex of CDK7, cyclin H, and MAT1 in a 1:1:1 ratio were pooled and concentrated to 3 mg/mL in a 10 kDa MWCO concentrator, and diluted to a final concentration of 1.6 mg/mL in 11.1 mM Hepes-NaOH (pH 8.0), 27.8 mM NaCl, 1.1 mM DTT and 50% glycerol. […]
Absorbance Kinetic Assay (20 nM CDK7/Cyclin H/MAT-1 Complex)
CDK7 complex catalyzes the ATP-dependent phosphorylation of a peptide substrate CDK7/9-tide that is derived from RNA Pol II to produce phosphorylated peptide and ADP. The kinase reaction product ADP was converted to lactate and NAD^+ in the presence of phosphoenol pyruvate (PEP), NADH and coupling enzymes lactate dehydrogenase (LDH) and pyruvate kinase (PK). CDK7 complex catalytic activity was measured by following the absorbance intensity continuously at 340 nm that corresponds with the depletion of NADH.
Absorbance at 340 nm was followed kinetically at an interval of 2 minutes for 8 hours.
The assay was carried out with 100 μl reaction volume per well in a 384-well plate that was pre-spotted nanoliter volume of compounds by LabCyte Echo 555. Compound dilution plates were made by 2-fold (could vary upon necessity) dilution in DMSO for 11 concentrations plus a DMSO control of uninhibited reaction. 2× substrate and coupling reagent mixture was added to the assay plate followed by an addition of an equal volume of 40 nM CDK7/Cyclin H/MAT-1 complex. After mixing, assay plates were spun at 2000 rpm for 3 minutes and then transferred to the plate reader for data collection.
For reversible inhibitors, the absorbance reaction progress curves were linear. The steady-state rate was derived from the slope of the linear curves. The following equation is applied to determine percent inhibition.
[formula] • νo=max rate (uninhibited rate) • νi=inhibited rate
The IC50 value is calculated by the following equation:
[formula] where νo is the rate in the absence of inhibitor, νmin is the rate at highest inhibitor concentration, and h is the Hill coefficient. Flint Assay (5 nM CDK7/Cyclin H/MAT-1 Complex)

T1 sequence (P50613 whole entry, the tested form may be a part): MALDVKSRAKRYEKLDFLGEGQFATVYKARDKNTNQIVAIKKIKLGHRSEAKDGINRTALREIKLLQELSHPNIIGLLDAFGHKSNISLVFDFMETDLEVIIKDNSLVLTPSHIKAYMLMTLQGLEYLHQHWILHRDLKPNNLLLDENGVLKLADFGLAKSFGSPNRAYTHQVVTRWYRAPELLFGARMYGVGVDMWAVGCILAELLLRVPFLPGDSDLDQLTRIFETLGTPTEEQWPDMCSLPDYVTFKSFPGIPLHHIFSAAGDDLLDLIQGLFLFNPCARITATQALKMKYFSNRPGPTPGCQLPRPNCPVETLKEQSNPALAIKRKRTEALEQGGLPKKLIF
T1 sequence (P51946 whole entry partner, the tested form may be a part): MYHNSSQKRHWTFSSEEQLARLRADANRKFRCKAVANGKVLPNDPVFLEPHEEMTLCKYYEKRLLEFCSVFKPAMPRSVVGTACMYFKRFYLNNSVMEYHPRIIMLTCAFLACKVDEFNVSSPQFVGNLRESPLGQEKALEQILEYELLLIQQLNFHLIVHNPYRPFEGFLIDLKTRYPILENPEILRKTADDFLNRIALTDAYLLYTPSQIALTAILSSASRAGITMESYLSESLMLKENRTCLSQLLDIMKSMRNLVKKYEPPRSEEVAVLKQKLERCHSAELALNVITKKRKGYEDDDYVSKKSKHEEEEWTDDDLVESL
T1 sequence (P51948 whole entry partner, the tested form may be a part): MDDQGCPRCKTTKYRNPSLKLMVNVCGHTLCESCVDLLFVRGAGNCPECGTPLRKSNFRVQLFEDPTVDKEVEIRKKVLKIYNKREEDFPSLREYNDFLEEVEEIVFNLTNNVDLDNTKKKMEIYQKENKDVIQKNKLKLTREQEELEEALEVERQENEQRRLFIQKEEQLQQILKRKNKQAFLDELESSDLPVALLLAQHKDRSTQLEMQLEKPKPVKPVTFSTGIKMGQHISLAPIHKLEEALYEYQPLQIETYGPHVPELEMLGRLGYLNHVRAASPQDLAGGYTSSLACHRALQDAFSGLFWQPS

Turning to `CO[C@H]1CC[C@H](Nc2ncc3c(n2)CN(C(=O)[C@@H]2CCN(C)C[C@H]2c2ccc(C)nc2)[C@H](C)C3)CC1` (relative stereo) [Compound 109], the IC50 in experiment [1] and in experiment [2] was above 10000 nM each time.

`Cc1cccc([C@@H]2CN(C)CC[C@H]2C(=O)N2Cc3nc(Nc4cnn(C)c4)ncc3[C@@H]3C[C@@H]32)c1` (relative stereo) [Compound 202]: the IC50 in experiment [1] was 6920 nM; in experiment [2], 2340 nM.

On to `C[C@@H]1Cc2cnc(NCc3ccn(C)n3)nc2[C@@H](C)N1C(=O)[C@H]1CCN(C)C[C@@H]1c1ccccc1` (relative stereo) [Compound 197], for which the IC50 in experiment [1] is 2820 nM; in experiment [2], 776 nM.

For the molecule `C[C@@H]1Cc2cnc(NC3CCOCC3)nc2CN1C(=O)[C@@H]1CCN(C)C[C@H]1c1ccc(Cl)c(F)c1` [Compound 122a], the IC50 in experiment [1] is above 10000 nM. Also, the “CDK7 (20 nM) pIC50” value in experiment [2] is recorded as below 5.

In the case of `C[C@@H]1Cc2cnc(NCc3ccccc3)nc2CN1C(=O)[C@H]1CCN(C)C[C@@H]1C(F)(F)F` (relative stereo) [Compound 142], the IC50 in experiment [1] was 4170 nM; in experiment [2] it was 2950 nM.

With `C[C@@H]1Cc2cnc(NC3CCOCC3)nc2CN1C(=O)[C@H]1CCN(C)C[C@@H]1C1CCOCC1` (relative stereo) [Compound 115], the figures for the IC50 in experiment [1] and in experiment [2] were 6310 nM and 120 nM, respectively.

For `Cc1cc([C@H]2CN(C)CC[C@@H]2C(=O)N2Cc3nc(NC4CCOCC4)ncc3C[C@H]2C)ccn1` (relative stereo) [Compound 103], the IC50 in experiment [1] and in experiment [2] was above 10000 nM each time.

With `C[C@@H]1Cc2cnc(NC3CCOCC3)nc2CN1C(=O)[C@H]1CCN(C)C[C@@H]1c1ccc(F)cc1` (single isomer, unassigned) [Compound 92b], in experiment [1], the IC50 was around 67.6 nM. For the same molecule, the “CDK7 (20 nM) pIC50” value in experiment [2] is given as 7.92.

As for `C[C@@H]1CN(C(=O)[C@H]2CCN(C)C[C@@H]2c2ccccc2)[C@H](C)c2nc(NC3CCOCC3)ncc21` (relative stereo) [Compound 182], the IC50 in experiment [1] was 4270 nM; in experiment [2], 724 nM.

Regarding `C[C@@H]1Cc2cnc(NC3CCOCC3)nc2CN1C(=O)[C@H]1CN(C)C[C@@H]1c1ccccc1` (relative stereo) [Compound 169a], the IC50 in experiment [1] was above 10000 nM; in experiment [2], 468 nM.

With `C[C@@H]1Cc2cnc(NC3CCOCC3)nc2CN1C(=O)[C@H]1CCN(C)C[C@@H]1C1CC1` (racemic) [Compound 111], the results for the IC50 in experiment [1] and in experiment [2] were 8320 nM and 214 nM, respectively.

For `C[C@@H]1c2nc(NC3CCOCC3)ncc2CCN1C(=O)[C@H]1CCN(C)C[C@@H]1c1ccccc1` (relative stereo) [Compound 183], the IC50 in experiment [1] and in experiment [2] was above 10000 nM each time.

For `C[C@@H]1Cc2cnc(NC3CCOCC3)nc2CN1C(=O)[C@@H]1CC[C@H](N(C)C)CN1c1ccccc1` (mixture of isomers) [Compound 168], in experiment [1], the IC50 is above 10000 nM. The “CDK7 (20 nM) pIC50” value in experiment [2] was determined as 5.87.

For the molecule `CN1CCN(C(=O)N2Cc3nc(NC4CCOCC4)ncc3CC2(C)C)[C@@H](c2ccccc2)C1` [Compound 205], the IC50 in experiment [1] was 513 nM. Moreover, the “CDK7 (20 nM) pIC50” value in experiment [2] amounted to 7.89.

Turning to `C[C@H]1CN(C(=O)[C@H]2CCN(C)C[C@@H]2c2ccccc2)Cc2nc(NC3CCOCC3)ncc21` (relative stereo) [Compound 187], the IC50 in experiment [1] and in experiment [2] was above 10000 nM each time.

Consider `CC(C)n1cc(CNc2ncc3c(n2)CN(C(=O)[C@H]2CCN(C)C[C@@H]2c2ccccc2)[C@H](C)C3)cn1` [Compound 30], for which the IC50 in experiment [1] is 3890 nM. Further, the “CDK7 (20 nM) pIC50” value in experiment [2] is 7.03.

Regarding `CO[C@H]1CC[C@H](Nc2ncc3c(n2)CN(C(=O)[C@H]2CCN(C)C[C@@H]2c2ccnc(C)c2)[C@H](C)C3)CC1` (relative stereo) [Compound 106], the results for the IC50 in experiment [1] and in experiment [2] were above 10000 nM and 6030 nM, respectively.

In the case of `Cc1ccc([C@H]2CN(C)CC[C@@H]2C(=O)N2Cc3nc(NC4CCOCC4)ncc3C[C@H]2C)cn1` (relative stereo) [Compound 107], the IC50 in experiment [1] and in experiment [2] was above 10000 nM in each case.

As for `Cc1cccc([C@@H]2CN(C)CC[C@H]2C(=O)N2Cc3nc(Nc4cnn(C)c4)ncc3C[C@H]2C)c1` (relative stereo) [Compound 125], the IC50 in experiment [1] is 794 nM; in experiment [2] it was 339 nM.

Regarding `C[C@@H]1Cc2cnc(NC3CCOCC3)nc2CN1C(=O)[C@@H]1CCN(C)C[C@H]1C(F)(F)F` [Compound 140a], in experiment [1], the IC50 was above 10000 nM. In addition, in experiment [2], the “CDK7 (20 nM) pIC50” value came out at 5.89.

For the molecule `C[C@H]1c2nc(NC3CCOCC3)ncc2CCN1C(=O)[C@H]1CCN(C)C[C@@H]1c1ccccc1` (relative stereo) [Compound 184], the values for the IC50 in experiment [1] and in experiment [2] were 537 nM and 25.7 nM, respectively.

In the case of `C[C@@H]1Cc2cnc(NC3CCN(C(=O)CC4CC4)CC3)nc2CN1C(=O)[C@H]1CCN(C)C[C@@H]1c1ccccc1` [Compound 31], the IC50 in experiment [1] was around 69.2 nM. Moreover, the “CDK7 (20 nM) pIC50” value in experiment [2] came out at 7.81.
